In PMC6514978, “Synthesis, Antibacterial Activities, Mode of Action and Acute Toxicity Studies of New Oxazolidinone-Fluoroquinolone Hybrids” (Molecules, 2019):
Values after ≈ are worked out from the molar mass of the structure shown.

Columns and labels:
Female Kunming mice = test: Acute oral toxicity, limit test (OECD 425); type: in vivo; conditions: single oral dose 2000 mg/kg, 14 d observation
Experimental: (§1) Female Kunming mice (SPF grade, 18–22 g) were obtained from laboratory animal center of Lanzhou Veterinary Research Institute (Lanzhou, China). Mice were maintained under the standard conditions of 12 h light/dark cycle, room temperate (22 ± 3 °C), 50–60% relative humidity. They were fed normally with an unlimited supply of feed and water for seven days and deprived of food but not water for 4 h prior to the experiment. The toxicity test was supported by the Animal Ethics Committee of Lanzhou Institute of Husbandry and Pharmaceutical Sciences.
(§2) The acute toxicity of hybrids OBP-4 and OBP-5 was conducted by the limit test described in the OECD guideline 425 [39]. The mice were divided randomly into two groups, five animals in each group. One group of mice received a single oral dose of hybrids OBP-4 or OBP-5 at 2000 mg/kg·bw, and the other group of mice was given the equal volume of 0.5% CMC-Na solution (0.1 mL/10 g of body weight). Food was restored until 4 h after administration. The observation of each animal occurred according to the OECD guideline 425 [27], meaning continuously during the first 30 min, periodically during the next 24 h, and then daily thereafter until 14 d after dosing. The weight changes and mortality were calculated and recorded. The mice that survived were humanely killed at the end of the experiment.

[1] = Acute oral toxicity, limit test (OECD 425); type: in vivo; conditions: female, Kunming, mouse, in vivo, 2000 mg/kg·bw; mice, single oral dose, limit test 2000 mg/kg, 14 d observation
Experimental: as §1, §2

[2] = test system: other resistant organisms in the test; test: MIC summary, resistant organisms other than MRSA and MRSE; type: cell-based; conditions: resistant strains other than MRSA and MRSE; read-out: MICs values against other resistant organisms
Source text: (§3) 6 standard strains and 3 clinical isolates were used to the preliminary evaluation of in vitro antibacterial activities of oxazolidinone-fluoroquinolone hybrids. For the further evaluation of hybrids OBP-4 and OBP-5, 263 clinical isolates including S. aureus (46), S. haemolyticus(32), S. epidermidis (10), E. faecalis (72), E. faecium (47), S. pneumoniae (13), H. parasuis (34), S. suis (9), and 8 resistant strains including MRSA, MRSE, CIP-resistant S. aureus and S. haemolyticus, VAN and quinolone-resistant S. pneumoniae, LZD-resistant E. faecalis, LZD/VAN and quinolone-resistant E. faecium were collected and tested.
(§4) Susceptibility testing of oxazolidinone-fluoroquinolone hybrids against various bacteria was performed by the broth microdilution method as outlined by the Clinical and Laboratory Standards Institute (CLSI). Three types of media, including cation-adjusted Mueller Hinton broth, Haemophilus Test Medium and cation-adjusted Mueller Hinton broth that contained 3%–5% lysed horse blood, were used to culture the corresponding bacteria. All compounds including comparator drugs were dissolved in an appropriate solvent at a concentration of 2.048 mg/mL and then serially diluted two-fold to provide the required concentrations. A final inoculum of 5 × 10^5 CFU/mL was used and plates were read after incubation for 16–24 h at 35 °C. […]

Gram-positive bacteria = test: MIC summary, Gram-positive bacteria of the preliminary panel; type: cell-based
Source text: as §3, §4

Gram-positive isolates = test: MIC summary, clinical isolates; type: cell-based; conditions: for MIC90: Gram-positive clinical isolates, read-out: MIC90 values for Gram-positive isolates (span over species)
Source text: as §3
Susceptibility testing of oxazolidinone-fluoroquinolone hybrids against various bacteria was performed by the broth microdilution method as outlined by the Clinical and Laboratory Standards Institute (CLSI). Three types of media, including cation-adjusted Mueller Hinton broth, Haemophilus Test Medium and cation-adjusted Mueller Hinton broth that contained 3%–5% lysed horse blood, were used to culture the corresponding bacteria. All compounds including comparator drugs were dissolved in an appropriate solvent at a concentration of 2.048 mg/mL and then serially diluted two-fold to provide the required concentrations. A final inoculum of 5 × 10^5 CFU/mL was used and plates were read after incubation for 16–24 h at 35 °C. […] Standard quality control strains (ATCC) were included throughout. Each determination was repeated in triplicate.

E. coli Topo IV = target: T1, E. coli Topo IV (Escherichia coli, UniProt P0AFI2+P20083); test: Topo IV relaxation assay; type: biochemical; conditions: relaxation of supercoiled pBR322, 37 °C, 30 min
T1 construct: purchased Inspiralis Co., Ltd; host or cells: overexpressing E. coli
Experimental: The E. coli Topo IV Relaxation Assay Kit (Inspiralis Co., Ltd.) was used to evaluate the effects of hybrids OBP-4 and OBP-5 against topo IV. Topo IV was prepared by the overexpressing E. coli. One unit of topo IV will relax 0.4 μg of supercoiled pBR322. In the assay, the final reaction mixtures (30 μL) consisted of 0.4 μg supercoiled pBR322 and one unit DNA Topo IV with or without compounds in assay buffer with 40 mM Hepes-KOH (pH 7.6), 100 mM potassium glutamate, 10 mM magnesium acetate, 10 mM DTT, 1 mM ATP and 50 μg/mL albumin, and then was incubated at 37 °C for 30 min. The reaction was terminated by adding 30 μL of STEB and 30 μL of chloroform/isoamyl alcohol (v:v, 24:1) after incubation for 30 min. Then, the reaction products were processed as described in a DNA gyrase supercoiling assay.

T1 sequence (P20083 whole entry): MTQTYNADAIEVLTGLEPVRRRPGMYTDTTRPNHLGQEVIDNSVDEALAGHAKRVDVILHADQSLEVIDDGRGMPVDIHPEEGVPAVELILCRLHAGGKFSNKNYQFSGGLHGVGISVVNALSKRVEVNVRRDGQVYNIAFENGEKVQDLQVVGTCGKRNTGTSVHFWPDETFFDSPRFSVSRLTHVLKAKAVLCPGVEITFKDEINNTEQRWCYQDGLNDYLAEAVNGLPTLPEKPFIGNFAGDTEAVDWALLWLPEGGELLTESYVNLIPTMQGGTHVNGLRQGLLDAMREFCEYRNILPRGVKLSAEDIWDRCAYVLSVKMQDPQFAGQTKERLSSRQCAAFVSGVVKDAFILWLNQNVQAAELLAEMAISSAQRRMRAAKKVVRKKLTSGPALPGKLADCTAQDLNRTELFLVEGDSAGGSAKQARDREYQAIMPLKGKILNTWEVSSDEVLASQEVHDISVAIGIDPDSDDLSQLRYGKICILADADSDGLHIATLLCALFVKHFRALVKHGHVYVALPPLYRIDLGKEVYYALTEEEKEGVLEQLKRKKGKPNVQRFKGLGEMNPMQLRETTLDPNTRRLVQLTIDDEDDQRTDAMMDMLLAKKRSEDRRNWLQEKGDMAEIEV
T1 sequence (P0AFI2 whole entry): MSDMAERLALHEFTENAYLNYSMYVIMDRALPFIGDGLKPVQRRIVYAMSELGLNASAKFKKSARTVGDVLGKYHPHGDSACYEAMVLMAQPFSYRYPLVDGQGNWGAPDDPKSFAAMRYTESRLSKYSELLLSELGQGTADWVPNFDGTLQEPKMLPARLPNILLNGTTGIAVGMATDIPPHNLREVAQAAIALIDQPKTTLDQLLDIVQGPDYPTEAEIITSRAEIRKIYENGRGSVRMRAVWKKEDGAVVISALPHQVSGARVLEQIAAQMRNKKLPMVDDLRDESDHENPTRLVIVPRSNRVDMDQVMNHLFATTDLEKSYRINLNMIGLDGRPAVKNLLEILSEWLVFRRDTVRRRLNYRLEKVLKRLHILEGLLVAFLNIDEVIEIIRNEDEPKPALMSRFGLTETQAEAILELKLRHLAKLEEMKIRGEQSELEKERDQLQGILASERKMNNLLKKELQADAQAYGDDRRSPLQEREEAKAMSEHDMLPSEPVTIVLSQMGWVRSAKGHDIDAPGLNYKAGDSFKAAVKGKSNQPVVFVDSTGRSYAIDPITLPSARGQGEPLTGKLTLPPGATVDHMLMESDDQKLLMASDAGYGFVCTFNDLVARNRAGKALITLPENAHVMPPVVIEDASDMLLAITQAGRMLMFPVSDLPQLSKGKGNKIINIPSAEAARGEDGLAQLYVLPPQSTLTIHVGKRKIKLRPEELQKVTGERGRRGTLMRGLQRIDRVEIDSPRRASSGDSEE

Structure (SMILES) | death and toxicity signs (Female Kunming mice) | LD50 at 14 d [1] [mg/kg] | MIC [2] [µg/mL] | antibacterial efficacy against Gram-positive bacteria, times stronger than LZD (Gram-positive bacteria; relative to LZD) | MIC90 (Gram-positive isolates) [µg/mL] | fold greater activity than OBP-4, overall (Gram-positive isolates; tested clinical isolates) [fold] | IC50 (E. coli Topo IV) [µM] | MIC (Gram-positive bacteria; read-out: MICs against Gram-positive bacteria) [µg/mL]
CC1Sc2c(C(=O)O)c(=O)c3cc(F)c(N4CCC(O)(COc5ccc(N6C[C@H](CO)OC6=O)cc5F)CC4)cc3n21 (stereo partly shown) [OBP-5] | No death and any toxicity signs were observed | > 2000 | 0.0625 to 1 (≈ 0.104 to 1.66 µM) | 4–16 times | 0.0625 to 0.25 (≈ 0.104 to 0.414 µM) | 2 | > 40 | –
C[C@H]1CCc2c(N3CCC(O)(COc4ccc(N5C[C@H](CO)OC5=O)cc4F)CC3)c(F)cc3c(=O)c(C(=O)O)cn1c23 [OBP-4] | No death and any toxicity signs were observed | > 2000 | 0.0625 to 1 (≈ 0.104 to 1.67 µM) | – | 0.125 to 0.25 (≈ 0.208 to 0.417 µM) | – | 10 to 15 | ≤ 0.5
